Measurements: BindingDB's records for doi:10.1021/jm020050+ (Glaxosmithkline, 2002)

Assays:
[1] = biological target: T1, Enoyl-[acyl-carrier-protein] reductase [NADPH] FabI (Staphylococcus aureus (strain MRSA252), UniProt Q6GI75); assay: Enzyme Inhibition Assay; conditions: pH 6.5; 30 °C
T1 sequence (Q6GI75 whole entry): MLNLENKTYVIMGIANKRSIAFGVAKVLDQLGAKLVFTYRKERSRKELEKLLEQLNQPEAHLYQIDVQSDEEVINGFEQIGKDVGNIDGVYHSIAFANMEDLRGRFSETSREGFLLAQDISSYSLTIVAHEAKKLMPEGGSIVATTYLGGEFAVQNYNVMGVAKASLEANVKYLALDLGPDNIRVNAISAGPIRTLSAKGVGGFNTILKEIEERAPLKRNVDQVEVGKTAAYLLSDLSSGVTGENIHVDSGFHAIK
Description: (§1) Assays were carried out in half-area, 96-well microtiter plates. Compounds were evaluated in assay mixtures containing components specific for each enzyme. […] The consumption of NAD(P)H was monitored for 20 min at 30 °C by following the change in absorbance at 340 nm. IC50 values were estimated from a fit of the initial velocities to a standard equation.

[2] = biological target: T2, Enoyl-[acyl-carrier-protein] reductase [NADH] FabI (Haemophilus influenzae (strain ATCC 51907 / DSM 11121 / KW20 / Rd), UniProt P44432); assay: Enzyme Inhibition Assay; conditions: 30 °C
T2 sequence (P44432 whole entry): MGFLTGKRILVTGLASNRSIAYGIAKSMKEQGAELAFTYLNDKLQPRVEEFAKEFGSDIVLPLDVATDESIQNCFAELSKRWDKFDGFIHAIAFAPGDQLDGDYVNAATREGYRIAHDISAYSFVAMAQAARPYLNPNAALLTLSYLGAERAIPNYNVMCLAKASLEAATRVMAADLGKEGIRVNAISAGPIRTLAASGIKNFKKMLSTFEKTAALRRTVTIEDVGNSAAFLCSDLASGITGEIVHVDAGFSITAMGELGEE
Description: as §1

Row | IC50 [1] [µM] | IC50 [2] [µM] | Compound
1 | 11.2 |  | CN(Cc1cc2ccccc2n1C)C(=O)/C=C/c1ccc(N)cc1 [(E)-3-(4-Aminophenyl)-N-methyl-N-(1-methyl-1H-indol-2-ylmethyl)acrylamide]
2 | 676 | > 100 | COC(=O)C[C@@H]1Nc2ccc(C(=O)N(C)Cc3cc4ccccc4n3C)cc2CN(C)C1=O [(2S)-2-[(Carbomethoxy)methyl]-N,4-dimethyl-N-(1-methyl-1H-indol-2-ylmethyl)-3-oxo-2,3,4,5-tetrahydro-1H-1,4-benzodiazepine-7-carboxamide]
3 |  | > 100 | CN(Cc1cc2ccccc2n1C)C(=O)c1ccccc1 [N-Methyl-N-(1-methyl-1H-indol-2-ylmethyl)benzamide]
